Laboratory results: patent US9789096B2, “Methods and compositions for selective and targeted cancer therapy” (Board of Regents of the University of Texas System, priority 2013, dated 2017)
pIC50: −log10 of the molar value. Read-outs that look alike come from different tables or passages of the source.

How the values were obtained:
H2122 = experiment: Cell viability dose-response, H2122; format: cell-based, human; conditions: Homo sapiens; for IC50: NCI-H2122, Tables 3 and 4, read-out: IC50 (uM) vs indicated non-small cell lung cancer cell line H2122
Procedure, shortened: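 Viability read as total ATP (Cell Titer Glo) following 4 days' compound exposure, with IC50 derived from dose-response curves. Duplicate 12-point series, top concentration 50 micromolar with 3-fold steps, on cells seeded at 15% confluence in RPMI-1640, 5% FBS, 2 mM L-glutamine.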

[1] = system: 12 lung adenocarcinoma cell lines; experiment: Proliferation of the panel of 12 lung adenocarcinoma cell lines; format: cell-based, human
Experimental: (§1) FIG. 6A. […] Cell viability is plotted vs. compound concentration. Compound was added to cells plated at 15% confluence in 96-well plates in RPMI-1640 media supplemented with 5% Fetal Bovine Serum and 2 mM L-Glutamine. After 4 days of incubation, ATP levels were measured using Cell Titer Glo (Promega). Data are presented as the average of 2 replicates ±SEM.
To discover selective agents, twelve cell lines of diverse genotype were selected for analysis. 108 lung cancer cell lines were initially clustered into six groups based on mRNA expression of genes that underwent frequent copy number variation. Two cell lines were chosen from each group for high throughput chemical screening. All 12 of the chosen cell lines were derived from lung adenocarcinomas, eliminating both lineage and histology as confounders. None of the cell lines chosen for screening harbored EGFR mutations or ALK rearrangements, so that the final set represented a collection of diverse lung adenocarcinoma genotypes for which there are no targeted therapy.
The proliferative impact of each compound in the library was assayed by analyzing total ATP four days after administration of 2.5 μM in a single well. This first pass yielded 15,843 toxins defined as a compound where ATP levels were […] three standard deviations below the mean for at least one cell line. For each of these putative toxins, the average effect on proliferation was retested on each cancer cell line and a non-cancerous immortalized HBEC line (control), yielding a confirmation dataset.
In addition, N-acyl benzothiazoles was also discovered, such as 4-amino-N-(6-methoxybenzo[d]thiazol-2-yl)benzamide (ATB). We compared the proliferation of 12 lung adenocarcinoma cell lines and three HBEC lines after the addition of ATB.
We subsequently synthesized various derivatives that are both selective and potent (Tables 1 and 2). One leading candidate is a benzothiazole, SW202857, that inhibits proliferation in three of 12 adenocarcinoma cell lines at concentrations less than 10 nM.

H2122 cells = experiment: Toxicity to H2122 cells with or without CYP4 inhibitor HET0016; format: cell-based, human
HCC44 = experiment: Cell viability dose-response, HCC44; format: cell-based, human; conditions: Homo sapiens, HCC44, Tables 3 and 4; read-out: IC50 (uM) vs indicated non-small cell lung cancer cell line HCC44
Procedure, shortened: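 Cells at 15% confluence in RPMI-1640 with 5% FBS and 2 mM L-glutamine were exposed to compound for 4 days. Viability was measured as ATP by CellTiter-Glo. Dose-responses used 12 points from 50 micromolar in 3-fold steps, in duplicate; IC50 from dose-response curves.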

HopS62 = experiment: Cell viability dose-response, HopS62; format: cell-based; conditions: Homo sapiens; Table 4; read-out: IC50 (uM) vs indicated non-small cell lung cancer cell line HopS62
Experimental: as §1
Selectivity may be measured by the half maximal inhibitory concentration (IC50), which, as used herein, is a measure of the effectiveness of a compound in killing cells. This quantitative measure indicates how much of a particular compound is needed to kill a particular cell population by half (e.g., as indicated by the amount of ATP). […] The IC50 can be determined by constructing a dose-response curve. The lower the IC50, the higher the potency, and the greater the difference between IC50 values for different cell lines (e.g., sensitive lines vs. insensitive lines, and sensitive lines vs. normal lines) the greater the selectivity.
With this information, we synthesized and tested a series of small molecules derived in conception from the oxalamide and chromone scaffold including N-acyl ureas, as shown in Tables 6-8. Each compound was tested in a 12-point dose-response study starting at 50 micromolar and decreasing in 3-fold increments to sub-nanomolar concentrations, in duplicate. […]

[2] = NCI-H2122, Table 9, competitor, read-out: IC50 to H2122 cells

Row | Structure (SMILES) | pIC50 (H2122; [2]) | toxicity to H2122 cells in the presence of CYP450 inhibitor HET0016 (H2122 cells) | IC50 (H2122) [µM] | IC50 (HCC44) [µM] | IC50 (HopS62) [µM] | further results
1 | COc1ccc2nc(NC(=O)c3ccc(N)cc3)sc2c1 [ATB, 4-amino-N-(6-methoxybenzo[d]thiazol-2-yl)benzamide] |  |  |  |  |  | pIC50 (H2122; NCI-H2122, read-out: IC50 against the most sensitive cell line (H2122)): 7.32; pIC50 ([1]; Homo sapiens, read-out: IC50 against 10 other cell lines, including the normal line): < 6.00
2 | O=C(NCCc1ccc(O)cc1)NC(=O)c1ccc(Oc2ccccc2)cc1 [SW208523] | 7.71 | toxic to H2122 cells in the presence or absence of the CYP450 inhibitor |  |  |  | 
3 | CNC(=O)c1cccc(NC(=O)N2CCC(Oc3ccccc3Cl)CC2)c1 [compound 28c, reference compound] |  |  |  |  |  | toxicity to the same 4 non-small cell lung cancer cell lines ([1]; FIG. 8E): toxic
4 | O=C(Nc1nc2c(s1)CCC2)c1ccc(C(=O)c2ccccc2)cc1 [SW208666-1] |  |  | 0.26 | 3.52 | 0.09 | 
5 | O=C(Nc1nc2ccccc2o1)c1ccc(C(=O)c2ccccc2)cc1 [SW208665-1] | 6.10 |  | 42.7 | 2.14 | 1.93 | 
6 | COc1ccc(CCNC(=O)NC(=O)c2ccc(Oc3ccccc3)cc2)cc1 [SW208456] | 7.87 | rescued |  |  |  | 
